Assay results as given in patent US6887873B2, “Triazine derivatives and their application as antitelomerase agents” (Aventis Pharma S.A., priority 2001, dated 2005).

test system: G-quadruplex of oligonucleotide GGGTTAGGGTTAGGGTTAGGG (3.5 repeats of the human telomereic motif); assay: G-quadruplex stabilizing activity, fluorescence Tm (FAM+DABCYL oligonucleotide); format: binding
Summary of the method: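 FAM/DABCYL-labelled telomeric oligonucleotide (0.2 μM strand) in 10 mM sodium cacodylate pH 7.6 with 0.1 M LiCl (or NaCl) was annealed, then incubated ≥1 h at 20 °C with compound at 1 μM final. Samples were heated 20→80 °C, with excitation at 470 nm and emission at 515/588 nm. Tm is the 515 nm emission midpoint.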

SMILES | G4 delta Tm [°C]
Cc1cc(N(C)C)c2cc(Nc3nc(NCCCN(C)C)nc(Nc4ccc5nc(C)cc(N(C)C)c5c4)n3)ccc2n1 [Example 1, 2,4-bis(4-dimethylamino-2-methylquinolin-6-yl)amino-6-(3-dimethylaminopropyl)amino-[1,3,5]triazine] | 11.3
Cc1cc(N)c2cc(Nc3nc(Nc4ccc5nc(C)cc(N)c5c4)nc(Nc4ccc5nc(C)cc(N)c5c4)n3)ccc2n1 [Example 2, 2,4,6-tris(4-amino-2-methylquinolin-6-yl)amino-[1,3,5]triazine] | 18
Cc1cc(N)c2cc(Nc3nc(Nc4ccc5nc(C)cc(N(C)C)c5c4)nc(Nc4ccccc4Cl)n3)ccc2n1 [Example 3] | 5.5
Cc1cc(N)c2cc(Nc3nc(Nc4ccc(N5CCNCC5)cc4)nc(Nc4ccc5nc(C)cc(N)c5c4)n3)ccc2n1 [Example 15] | 2.7
Cc1cc(N)c2cc(Nc3nc(Nc4ccc5nc(C)cc(N)c5c4)nc(NC4CN5CCC4CC5)n3)ccc2n1 (centres unmarked) [Example 17, 2,4-bis(4-amino-2-methylquinolin-6-yl)amino-6-(quinuclidin-3-yl)amino-[1,3,5]triazine] | 17.1
Cc1cc(N(C)C)c2cc(Nc3nc(Nc4ccncc4)nc(Nc4ccc5nc(C)cc(N(C)C)c5c4)n3)ccc2n1 [Example 18] | 2.4
Cc1cc(N(C)C)c2cc(Nc3nc(Nc4ccc5nc(C)cc(N(C)C)c5c4)nc(C4CCN(C)CC4)n3)ccc2n1 [Example 19, 2,4-bis(4-dimethylamino-2-methylquinolin-6-yl)amino-6-(1-methylpiperidin-4-yl)-[1,3,5]triazine] | 3.5
Cc1cc(N(C)C)c2cc(Nc3nc(Nc4ccc5nc(C)cc(N(C)C)c5c4)nc(N4CCN(C)CC4)n3)ccc2n1 [Example 20, 2,4-bis(4-dimethylamino-2-methylquinolin-6-yl)amino-6-(4-methylpiperazin-1-yl)-[1,3,5]triazine] | 6.4
Cc1cc(N(C)C)c2cc(Nc3nc(NCc4ccncc4)nc(Nc4ccc5nc(C)cc(N(C)C)c5c4)n3)ccc2n1 [Example 27, 2,4-bis(4-dimethylamino-2-methylquinolin-6-yl)amino-6-(pyridin-4-yl)methylamino-[1,3,5]triazine] | 11.0
CCN(CCNc1nc(Nc2ccc3nc(C)cc(N(C)C)c3c2)nc(Nc2ccc3nc(C)cc(N(C)C)c3c2)n1)c1cccc(C)c1 [Example 28] | 10.6
Cc1cc(N)c2cc(Nc3nc(Nc4ccc5nc(C)cc(N)c5c4)nc(NC4CCN(Cc5ccccc5)C4)n3)ccc2n1 (centres unmarked) [Example 41] | 19
Cc1cc(N)c2cc(Nc3nc(Nc4ccc5nc(C)cc(N)c5c4)nc(N4CCN(C5CCCC5)CC4)n3)ccc2n1 [Example 43] | 18
Cc1cc(N)c2cc(Nc3nc(NCc4ccc([N+](C)(C)C)cc4)nc(Nc4ccc5nc(C)cc(N)c5c4)n3)ccc2n1 [Example 60] | 6
Cc1cc(N)c2cc(Nc3nc(Nc4ccc5nc(C)cc(N)c5c4)nc(N4CCN(C(=O)c5ccco5)CC4)n3)ccc2n1 [Example 68] | 8
Cc1cc(N)c2cc(Nc3nc(Nc4ccc5nc(C)cc(N)c5c4)nc(N4CCN(C5CCCCCCC5)CC4)n3)ccc2n1 [Example 77] | 12.5
Cc1cc(N)c2cc(Nc3nc(Nc4ccc5nc(C)cc(N)c5c4)nc(N4CCCC4c4cccnc4)n3)ccc2n1 (centres unmarked) [Example 86] | 6
Cc1cc(N)c2cc(Nc3nc(Nc4ccc5nc(C)cc(N)c5c4)nc(N(Cc4ccccc4)C4CN5CCC4CC5)n3)ccc2n1 (centres unmarked) [Example 92] | 3.5
Cc1cc(N)c2cc(Nc3nc(Nc4ccc5nc(C)cc(N)c5c4)nc(NC4CCN(Cc5ccccc5)CC4)n3)ccc2n1 [Example 93] | 8
Cc1cc(N)c2cc(Nc3nc(Nc4ccc5nc(C)cc(N)c5c4)nc(Oc4ccccc4Cl)n3)ccc2n1 [Example 103] | 7
COc1cccc(Oc2nc(Nc3ccc4nc(C)cc(N)c4c3)nc(Nc3ccc4nc(C)cc(N)c4c3)n2)c1 [Example 104] | 4.5
Cc1cc(N)c2cc(Nc3nc(Nc4ccc5nc(C)cc(N)c5c4)nc(OCCN(C)Cc4ccccc4)n3)ccc2n1 [Example 105] | 12
Cc1cc(N(C)C)c2cc(Nc3nc(Nc4ccc5nc(C)cc(N(C)C)c5c4)nc(Oc4ccncc4)n3)ccc2n1 [Example 115, 2,4-bis(4-dimethylamino-2-methylquinolin-6-yl)amino-6-(pyridin-4-yl)oxy-[1,3,5]triazine] | 13

SMILES | G4 delta Tm [°C]
Cc1cc(N)c2cc(Nc3nc(Nc4ccc5nc(C)cc(N)c5c4)nc(Sc4ccccc4Cl)n3)ccc2n1 [Example 118] | 3.5
Cc1cc(N)c2cc(Nc3nc(Nc4ccc5nc(C)cc(N)c5c4)nc(Sc4ccccn4)n3)ccc2n1 [Example 120] | 11.5
COc1ccc(CSc2nc(Nc3ccc4nc(C)cc(N)c4c3)nc(Nc3ccc4nc(C)cc(N)c4c3)n2)cc1 [Example 124] | 3
Cc1cc(N)c2cc(Nc3nc(Nc4ccc5nc(C)cc(N)c5c4)nc(Sc4ncccn4)n3)ccc2n1 [Example 126] | 19
Cc1cc(C)nc(Sc2nc(Nc3ccc4nc(C)cc(N)c4c3)nc(Nc3ccc4nc(C)cc(N)c4c3)n2)n1 [Example 127] | 14
Cc1cc(N)c2cc(Nc3nc(Nc4ccc5nc(C)cc(N)c5c4)nc(Sc4ccc5ccccc5n4)n3)ccc2n1 [Example 128, 2,4-bis(4-amino-2-methylquinolin-6-yl)amino-6-(quinolin-2-yl)thio-[1,3,5]triazine] | 15
Cc1cc(N(C)C)c2cc(Nc3nc(Nc4ccc5nc(C)cc(N(C)C)c5c4)nc(N4CCCN(C)CC4)n3)ccc2n1 [Example 135, 2,4-bis(4-dimethylamino-2-methylquinolin-6-yl)amino-6-(1-methylhomopiperazin-4-yl)-[1,3,5]triazine] | 20
Cc1cc(N(C)C)c2cc(Nc3nc(Nc4ccc5nc(C)cc(N(C)C)c5c4)nc(N4CCN(CCCN(C)C)CC4)n3)ccc2n1 [Example 136, 2,4-bis(4-dimethylamino-2-methylquinolin-6-yl)amino-6-[1-(3-dimethylaminopropyl)piperazin-4-yl]-[1,3,5]triazine] | 20.5
CCCN(CCC)CCN1CCN(c2nc(Nc3ccc4nc(C)cc(N(C)C)c4c3)nc(Nc3ccc4nc(C)cc(N(C)C)c4c3)n2)CC1 [Example 137, 2,4-bis(4-dimethylamino-2-methylquinolin-6-yl)amino-6-[1-(2-dipropylaminoethyl)piperazin-4-yl]-[1,3,5]triazine] | 16
Cc1cc(N(C)C)c2cc(Nc3nc(Nc4ccc5nc(C)cc(N(C)C)c5c4)nc(N(C)C4CCN(C)CC4)n3)ccc2n1 [Example 138, 2,4-bis(4-dimethylamino-2-methylquinolin-6-yl)amino-6-[N-(1-methylpiperidin-4-yl)-N-methylamino]-[1,3,5]triazine] | 16
Cc1cc(N(C)C)c2cc(Nc3nc(Nc4ccc5nc(C)cc(N(C)C)c5c4)nc(N4CCCN(CCCN5CCCC5)CC4)n3)ccc2n1 [Example 139] | 18.5
Cc1cc(N(C)C)c2cc(Nc3nc(NCCN4CCN(Cc5ccccc5)CC4)nc(Nc4ccc5nc(C)cc(N(C)C)c5c4)n3)ccc2n1 [Example 140] | 5.5
Cc1cc(N(C)C)c2cc(Nc3nc(Nc4ccc5nc(C)cc(N(C)C)c5c4)nc(N4CCN(CCOCCO)CC4)n3)ccc2n1 [Example 141, 2,4-bis(4-dimethylamino-2-methylquinolin-6-yl)amino-6-{[1-2-(2-hydroxyethyl)oxyethyl]piperazin-4-yl}-[1,3,5]triazine] | 7
Cc1cc(N(C)C)c2cc(Nc3nc(NCC[N+](C)(C)C)nc(Nc4ccc5nc(C)cc(N(C)C)c5c4)n3)ccc2n1 [Example 142] | 9.5
Cc1cc(N(C)C)c2cc(Nc3nc(Nc4ccc5nc(C)cc(N(C)C)c5c4)nc(N4CCN(C5CCCC5)CC4)n3)ccc2n1 [Example 143] | 13
Cc1cc(N(C)C)c2cc(Nc3nc(Nc4ccc5nc(C)cc(N(C)C)c5c4)nc(N4CCN(c5ccncc5)CC4)n3)ccc2n1 [Example 144, 2,4-bis(4-dimethylamino-2-methylquinolin-6-yl)amino-6-[1-(pyridin-4-yl)piperazin-4-yl]-[1,3,5]triazine] | 22.5
Cc1cc(N(C)C)c2cc(Nc3nc(NCc4ccncc4)nc(Nc4ccc5nc(C)cc(N(C)C)c5c4)n3)ccc2n1 [Example 145] | 5
CCN(CCN(C)C)c1nc(Nc2ccc3nc(C)cc(N(C)C)c3c2)nc(Nc2ccc3nc(C)cc(N(C)C)c3c2)n1 [Example 146] | 6
CC1=NCCN1c1nc(Nc2ccc3nc(C)cc(N(C)C)c3c2)nc(Nc2ccc3nc(C)cc(N(C)C)c3c2)n1 [Example 148] | 12
Cc1cc(N(C)C)c2cc(Nc3nc(Nc4ccc5nc(C)cc(N(C)C)c5c4)nc(N4CCC[C@H]4CN4CCCC4)n3)ccc2n1 [Example 149, 2,4-bis(4-dimethylamino-2-methylquinolin-6-yl)amino-6-[2(S)-(pyrrolidin-1-yl)methylpyrrolidin-1-yl]-[1,3,5]triazine] | 12.5
CC(=O)NCCNc1nc(Nc2ccc3nc(C)cc(N(C)C)c3c2)nc(Nc2ccc3nc(C)cc(N(C)C)c3c2)n1 [Example 150] | 6.5

test system: not given; assay: not given

SMILES | melting point [°C]
Cc1cc(N(C)C)c2cc(Nc3nc(Nc4ccc5nc(C)cc(N(C)C)c5c4)nc(N4CCN(C)CC4)n3)ccc2n1 [Example 20, 2,4-bis(4-dimethylamino-2-methylquinolin-6-yl)amino-6-(4-methylpiperazin-1-yl)-[1,3,5]triazine] | 256 to 260
